Experiments:
MRL/lpr mice [1] = test: Antinuclear antibody (ANA) ELISA (anti-chromatin, anti-Smith Ag, anti-dsDNA IgG), serum of MRL/lpr mice; type: in vivo, mouse; details: G6: 1.5 mg/kg ip, 3× wk
Text: For all ANA ELISA assays, values below the limit of detection set by the lowest point along the standard or set by the manufacturer are considered out of range and are not estimated, but assumed the lowest point along the standard curve for that particular assay.

MRL/lpr mice [2] = test: Survival / mortality, MRL/lpr mice (Example 1); details: G6: 1.5 mg/kg ip, 3× wk; vehicle 92
Procedure: Six week old lupus-prone, female, MRL/lpr (Jackson Labs, #000485) and non-lupus prone control MRL/MpJ (Jackson Labs, #000486) mice are obtained from Jackson Laboratories (Bar Harbor, Me.) at 6-weeks of age. All mice are maintained on a 24 hour light/dark cycle, with food and water available ad libitum. All experimental animal procedures are approved by and in accordance to the regulations of the Institutional Animal Care and Use Committee (IACUC) of Cephalon, Inc; approved IACUC protocol #03-040 and #03-03-041.
Due to this impaired tolerance mechanism, a percentage of all T and B cells that enter the periphery have a high likelihood of responding to self protein/tissues and thus initiate autoimmunity early in life. The MRL/lpr model mice develop several chronic inflammatory disease-like symptoms that are characteristic of early and late lupus including the generation of anti-nuclear antibodies, arthritis, dermatological manifestations, immunocomplex-mediated glomerulonephritis leading to proteinuria and eventual death. Lesser characterized phenomenon are CNS and cardiac manifestations, both of which are more common in humans. […] Mortality is higher in the females and occurs around 25 weeks of age, renal disease includes glomerulonephritis, glomerular infiltrates, sclerosis and vasculitis. Both splenomegaly and lymphomegaly associated with dermatitis can also be observed.
MRL/lpr mice are first randomized, initial bleeds collected, and body weights recorded for baseline measurements (FIG. 1). All mice are individually ear tagged and are monitored throughout the entire experiment (e.g., “Group#-Cage letter-Mouse#”, so “3B5”=Group 3 (G3), cage B, mouse #5). Mice are age-matched and treatment started at 6-8 weeks of age. Cheek bleeds and urine collection continues weekly throughout the experiment. Mice are individually tracked for several parameters including cytokine and ANA levels, proteinuria, body mass, lymphomegaly, general health, and mortality. All parameters are evaluated bi-monthly except mortality which is monitored daily. All groups consist of a minimum of at least 10-12 mice per group. Ex vivo experiments include flow cytometry analyses for plasma cells, serum complement C3 and ANA levels; urine protein and leukocytes, serum cytokine profiling, renal histo pathology, and determination of compound levels (pharmacokinetics (PK)) in the spleen, kidney and plasma. Mice are tracked on an individual basis. For all data, mice are grouped into populations and data graphed as mean±SEM. End-stage readouts are analyzed as described in the MATERIALS AND METHODS section (above) and in FIG. 1.
Vehicle alone is provided orally twice weekly (p.o.). Both proteasome inhibitors are suspended in the vehicle solution. Bi-monthly bleeds and urine are collected and frozen at […] until assayed. End analyses include kidney histology, splenocyte B-cell Elispots, flow cytometry for B and T cell populations, PD markers, serum cytokines, antibody and complement levels. In addition, urine proteinuria is determined for all animals.
In group two (G2), COMPOUND A was administered at a dose of 3 mg/kg iv twice weekly. In group three (G3), COMPOUND A was administered at a dose of 10 mg/kg p.o. twice weekly. […] In the new group five (G5), bortezomib was administered at a dose of 0.3 mg/kg iv twice weekly. Dexamethasone was administered at a dose of 1.5 mg/kg/2d (M, W, F) ip. Vehicle was 3% DMSO/10% Solutol/87% PBS. In those instances in which mice could not be injected via the iv route, agents were administered ip as noted in Table 1.

NZM mice = test: Antinuclear antibody (ANA) ELISA (anti-chromatin, anti-Smith Ag, anti-dsDNA), serum of NZM mice (Example 2); type: in vivo, mouse; details: G5 1.5 mg/kg ip, 3× wk
MRL/lpr mice [3] = test: Splenomegaly (spleen mass), MRL/lpr mice; type: in vivo, mouse; details: G6: 1.5 mg/kg ip, 3× wk
Procedure: FIG. 5 depicts splenomegaly for MRL/lpr mice across treatment groups for the study duration. MRL/lpr mice were treated as outlined in the legend. The spleen masses for all mice that survived until the end of the experiment are graphed. Each symbol represents the spleen weight for one mouse at 25 weeks of age.
Mice are tracked on an individual basis.
Vehicle alone is provided orally twice weekly (p.o.). Both proteasome inhibitors are suspended in the vehicle solution. […] In addition, urine proteinuria is determined for all animals.
Vehicle was 3% DMSO/10% Solutol/87% PBS.

MRL/lpr mice [4] = test: Urinalysis: total urine protein (proteinuria), MRL/lpr mice; type: in vivo, mouse; details: G6: 1.5 mg/kg ip, 3× wk
Procedure: Urine samples are acid precipitated for total protein recovery and analysis. Samples for which enough urine remained are used for Uristix® leukouria analysis. Briefly, a standard protein solution is prepared from normal mouse sera and is used as a standard for mouse urinary protein assay by turbidity. Standard preparation is as follows: 0, 5, 10, 15, 20, 30, 40, and 50 μL of a 4 mg/mL mouse sera standard protein solution as provided in the kit are added in duplicate into two columns. PBS is added to individual wells to adjust the final volume to 50 μL. For urine sample preparation, urine samples are centrifuged at 9880×g for 3 minutes using a tabletop micro-centrifuge. Urine supernatant (1-50 μL) is added in duplicate. PBS is added to adjust the volume to 50 μL total. For the turbidity assay: 25 μL of 0.1 N HCl is added into blank columns and 250 μL of 3% sulfosalicyclic acid into the test columns. The microplate is incubated for 10 minutes at RT and plates are read using an ELISA reader with single beam at 450 nm. For the Uristix® strip assay, strips are laid out and labeled. Twenty microliters of urine are placed onto each test strip square and incubated for at least 30 seconds before the result is recorded. For all total urine analysis plate-based assays, values below the limit of detection set by the lowest point along the standard or set by the manufacturer are considered out of range and are not estimated, but assumed the lowest point along the standard curve for that particular assay.

C[C@@H]1C[C@H]2[C@@H]3CCC4=CC(=O)C=C[C@]4(C)[C@@]3(F)[C@@H](O)C[C@]2(C)[C@@]1(O)C(=O)CO [dexamethasone, Dexamethasone, reference compound]
ANA AUC Smith Ag, percent change vs vehicle (MRL/lpr mice [1]): −45% | ANA AUC chromatin, percent change vs vehicle (MRL/lpr mice [1]): −47% | ANA AUC dsDNA, percent change vs vehicle (MRL/lpr mice [1]): −59% | EOS survival, true EOS mouse percentage from starting population (MRL/lpr mice [2]): 83% | ANA Smith Ag AUC, percent change vs vehicle (NZM mice): −56% | ANA chromatin AUC, percent change vs vehicle (NZM mice): −8% | ANA dsDNA AUC, percent change vs vehicle (NZM mice): −19% | EOS spleen mass, percent change vs vehicle (MRL/lpr mice [3]): −71% | Urine AUC proteinuria, percent change vs vehicle (MRL/lpr mice [4]): −46%
